In US20110117227A1, “COSMETIC COMPOSITION FOR ANTI-AGING OF THE SKIN COMPRISING PHASEOLUS RADIATUS SEED EXTRACTS BY FERMENTATION AND ENZYME TREATMENT” (COREANA COSMETICS, CO., LTD., priority 2008, published 2011):

Legend:
Type in all cases: cell-based
Human normal fibroblasts [1] = experiment: Collagen biosynthesis (procollagen type I C-peptide level) in human normal fibroblasts; conditions: positive control 250 uM, PICP
Method: Human normal fibroblasts were inoculated in a 48-well microplate ([…]) containing DMEM (Dulbecco's Modified Eagle Medium), followed by culture at 37° C. for 24 hours. […] After the culture, supernatant of each well was collected and procollagen type I C-peptide (PICP) level therein was measured using the kit (Takara, Japan) to calculate the amount of collagen newly synthesized. PICP level was calculated as ng/ml. […] The increasing rate of collagen biosynthesis was calculated according to the following Math Figure 1 and the results are shown in Table 2.

Human normal fibroblasts [2] = experiment: Fibroblast proliferation (MTT); conditions: positive control 10 ng/ml
Method: Human normal fibroblasts were inoculated in a 96-well microplate (1×10^4 cells/well) containing DMEM, followed by culture at 37° C. for 24 hours. The Phaseolus radiatus extract prepared in Comparative Manufacturing Example 1, the Phaseolus radiatus liquor of yeast-fermentation prepared in Comparative Manufacturing Example 2, the Phaseolus radiatus liquor of lactic acid bacterium-fermentation prepared in Comparative Manufacturing Example 3, the Phaseolus radiatus extract of enzyme treatment-yeast fermentation prepared in Comparative Manufacturing Example 4, the Phaseolus radiatus extract of enzyme treatment-lactic acid bacterium fermentation prepared in Comparative Manufacturing Example 5, the Phaseolus radiatus extract of yeast fermentation-enzyme treatment prepared in Manufacturing Example 1 and the Phaseolus radiatus extract of lactic acid bacterium fermentation-enzyme treatment prepared in Manufacturing Example 2 were treated to the experimental group in which the final concentration of the respective extracts or liquors was 1% and medium was replaced with serum-free medium, followed by further culture for 24 hours. […] Particularly, MTT (Sigma, USA) solution (3 mg/ml) was added thereto and then Absorbance at 570 nm was measured using ELISA reader (Molecular Devices, USA). […]

[3] = system: Human skin cells, fibroblasts; experiment: Alleviation of cell irritation caused by lactic acid (MTT cell survival); conditions: lactic acid 0.2% only (comparative control), 12 hours
Method: Human skin cells, fibroblasts (KCTC, Korean Collection for Type Culture, Korea), were cultured in T-75 flask (Falcon, USA) until the cell confluency reached 80%. The cells were transferred to a 96-well plate (Falcon, USA) at the density of 3×10^4 cells/well, followed by further culture for 24 hours. After the culture, the cells were observed under microscope if they were completely adhered and well-grown. As a stimulus for skin, lactic acid (0.2%) was used. Particularly, 200 μl of each DMEM supplemented with 0.2% lactic acid and DMEM not-containing lactic acid was added to each well, to which the Phaseolus radiatus extract, the Phaseolus radiatus liquor of yeast-fermentation, the Phaseolus radiatus liquor of lactic acid bacterium-fermentation, the Phaseolus radiatus extract of enzyme treatment-yeast fermentation, the Phaseolus radiatus extract of enzyme treatment-lactic acid bacterium fermentation (Comparative Manufacturing Examples 1-5), and the Phaseolus radiatus extract of fermentation-enzyme treatment (Manufacturing Examples 1 and 2) were added thereto at the concentration of 1.0% (v/v). […] Particularly, MTT (Sigma, USA) solution (3 mg/ml) was added thereto and then Absorbance at 570 nm was measured using ELISA reader (Molecular Devices, USA).

O=C1O[C@H]([C@@H](O)CO)C(O)=C1O [Ascorbic acid, ascorbic acid]
Increasing rate of collagen biosynthesis (%) (Human normal fibroblasts [1]): 72.8%

TGF-β
Proliferation rate of fibroblast (%) (Human normal fibroblasts [2]): 186.6%

CC(O)C(=O)O (stereo not drawn) [lactic acid]
Proliferation rate of fibroblast (%) [3]: 0.0%
